Laboratory results published in ChEMBL document CHEMBL1201862, “PubChem BioAssay data set” (2004).
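Briefly, cells in 96-well plates were exposed to five compound concentrations for 48 h, and endpoints were estimated by linear interpolation. GI50 marks 50% less growth.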 The source made the active and inactive calls. No stated cut-off is given here; in the data, active = GI50 up to about 1.1 µM and inactive = higher.

Assays:
Test in all cases: NCI-60 cell line screen, 48 h
OVCAR-8 = tested on: OVCAR-8
HCT-15 = tested on: HCT-15
SR = tested on: SR
NCI/ADR-RES = tested on: NCI/ADR-RES
BT-549 = tested on: BT-549
Malme-3M = tested on: Malme-3M
HOP-62 = tested on: HOP-62
MCF7 = tested on: MCF7
786-0 = tested on: 786-0
CCRF-CEM = tested on: CCRF-CEM
LOX IMVI = tested on: LOX IMVI
UACC-62 = tested on: UACC-62
SF-268 = tested on: SF-268
IGROV-1 = tested on: IGROV-1
UO-31 = tested on: UO-31
SK-MEL-28 = tested on: SK-MEL-28
RPMI-8226 = tested on: RPMI-8226
MDA-MB-231 = tested on: MDA-MB-231
T47D = tested on: T47D
SF-539 = tested on: SF-539
SNB-19 = tested on: SNB-19
NCI-H460 = tested on: NCI-H460
U-251 = tested on: U-251
UACC-257 = tested on: UACC-257
Hs-578T = tested on: Hs-578T
RXF 393 = tested on: RXF 393
HCC 2998 = tested on: HCC 2998
NCI-H23 = tested on: NCI-H23
NCI-H226 = tested on: NCI-H226
TK-10 = tested on: TK-10
K562 = tested on: K562
M14 = tested on: M14
SNB-75 = tested on: SNB-75
COLO 205 = tested on: COLO 205
OVCAR-3 = tested on: OVCAR-3
ACHN = tested on: ACHN
SK-MEL-5 = tested on: SK-MEL-5
OVCAR-5 = tested on: OVCAR-5
SN12C = tested on: SN12C
MDA-N = tested on: MDA-N
KM12 = tested on: KM12
NCI-H522 = tested on: NCI-H522
SF-295 = tested on: SF-295
OVCAR-4 = tested on: OVCAR-4
HCT-116 = tested on: HCT-116
HOP-92 = tested on: HOP-92
SW-620 = tested on: SW-620
HT-29 = tested on: HT-29
MOLT-4 = tested on: MOLT-4
PC-3 = tested on: PC-3
DU-145 = tested on: DU-145
A498 = tested on: A498
SK-MEL-2 = tested on: SK-MEL-2
SK-OV-3 = tested on: SK-OV-3
MDA-MB-435 = tested on: MDA-MB-435
CAKI-1 = tested on: CAKI-1
HL-60 = tested on: HL-60
A549 = tested on: A549
EKVX = tested on: EKVX

## N#Cc1c(Cl)c2cccnc2n2c1nc1ccccc12
OVCAR-8
  GI50: 1.96 µM (inactive)
HCT-15
  GI50: 2.04 µM
SR
  GI50: 1.08 µM (active)
NCI/ADR-RES
  GI50: 2.69 µM (inactive)
BT-549
  GI50: 4.44 µM (inactive)
Malme-3M
  GI50: 1.84 µM (inactive)
HOP-62
  GI50: 16.6 µM (inactive)
MCF7
  GI50: 2.71 µM (inactive)
786-0
  GI50: 1.77 µM (inactive)
CCRF-CEM
  GI50: 0.9 µM (active)
LOX IMVI
  GI50: 1.66 µM (inactive)
UACC-62
  GI50: 3.96 µM (inactive)
SF-268
  GI50: 2.66 µM (inactive)
IGROV-1
  GI50: 1.41 µM (inactive)
UO-31
  GI50: 1.81 µM (inactive)
SK-MEL-28
  GI50: 3.64 µM (inactive)
RPMI-8226
  GI50: 1.78 µM (inactive)
MDA-MB-231
  GI50: 2.13 µM (inactive)
T47D
  GI50: 2 µM (inactive)
SF-539
  GI50: 2.35 µM (inactive)
SNB-19
  GI50: 15.8 µM (inactive)
NCI-H460
  GI50: 7.01 µM (inactive)
U-251
  GI50: 4.28 µM (inactive)
UACC-257
  GI50: 2.69 µM (inactive)
Hs-578T
  GI50: 2.79 µM (inactive)
RXF 393
  GI50: 1.42 µM (inactive)
HCC 2998
  GI50: 3.85 µM (inactive)
NCI-H23
  GI50: 2.07 µM (inactive)
NCI-H226
  GI50: 2.93 µM (inactive)
TK-10
  GI50: 1.67 µM (inactive)
K562
  GI50: 0.427 µM (active)
M14
  GI50: 3.15 µM (inactive)
SNB-75
  GI50: 4.38 µM (inactive)
COLO 205
  GI50: 1.99 µM (inactive)
OVCAR-3
  GI50: 2.72 µM (inactive)
ACHN
  GI50: 1.78 µM (inactive)
SK-MEL-5
  GI50: 1.13 µM (inactive)
OVCAR-5
  GI50: 14.2 µM (inactive)
SN12C
  GI50: 2.04 µM (inactive)
MDA-N
  GI50: 3.62 µM (inactive)
KM12
  GI50: 6.41 µM (inactive)
NCI-H522
  GI50: 1.17 µM (inactive)
SF-295
  GI50: 19 µM (inactive)
OVCAR-4
  GI50: 2.66 µM (inactive)
HCT-116
  GI50: 1.7 µM (inactive)
HOP-92
  GI50: 1.97 µM (inactive)
SW-620
  GI50: 1.87 µM (inactive)
HT-29
  GI50: 1.94 µM (inactive)
MOLT-4
  GI50: 2.04 µM (inactive)
PC-3
  GI50: 2.41 µM (inactive)
DU-145
  GI50: 1.98 µM (inactive)
A498
  GI50: 17.3 µM (inactive)
SK-MEL-2
  GI50: 8 µM (inactive)
SK-OV-3
  GI50: 15.5 µM (inactive)
MDA-MB-435
  GI50: 4.3 µM (inactive)
CAKI-1
  GI50: 1.9 µM (inactive)
HL-60
  GI50: 0.507 µM (active)
A549
  GI50: 6.59 µM (inactive)
EKVX
  GI50: 4.22 µM (inactive)

## COc1ccc(/N=C(Nc2ccc(OC)cc2)/C(=N/c2ccc(OC)cc2)Nc2ccc(OC)cc2)cc1
OVCAR-8
  GI50: > 100 µM (inactive)
HCT-15
  GI50: > 100 µM
SR
  GI50: 48.2 µM (inactive)
NCI/ADR-RES
  GI50: > 100 µM (inactive)
BT-549
  GI50: > 100 µM (inactive)
Malme-3M
  GI50: > 100 µM (inactive)
HOP-62
  GI50: > 100 µM (inactive)
MCF7
  GI50: > 100 µM (inactive)
786-0
  GI50: > 100 µM (inactive)
CCRF-CEM
  GI50: 36 µM (inactive)
LOX IMVI
  GI50: > 100 µM (inactive)
UACC-62
  GI50: > 100 µM (inactive)
SF-268
  GI50: > 100 µM (inactive)
IGROV-1
  GI50: > 100 µM (inactive)
UO-31
  GI50: 5.25 µM (inactive)
SK-MEL-28
  GI50: > 100 µM (inactive)
RPMI-8226
  GI50: 5.66 µM (inactive)
MDA-MB-231
  GI50: > 100 µM (inactive)
T47D
  GI50: > 100 µM (inactive)
SF-539
  GI50: > 100 µM (inactive)
SNB-19
  GI50: > 100 µM (inactive)
NCI-H460
  GI50: > 100 µM (inactive)
U-251
  GI50: > 100 µM (inactive)
UACC-257
  GI50: > 100 µM (inactive)
Hs-578T
  GI50: 37.1 µM (inactive)
RXF 393
  GI50: > 100 µM (inactive)
HCC 2998
  GI50: > 100 µM (inactive)
NCI-H23
  GI50: > 100 µM (inactive)
NCI-H226
  GI50: > 100 µM (inactive)
TK-10
  GI50: > 100 µM (inactive)
K562
  GI50: 15 µM (inactive)
M14
  GI50: > 100 µM (inactive)
SNB-75
  GI50: 1.95 µM (inactive)
COLO 205
  GI50: > 100 µM (inactive)
OVCAR-3
  GI50: > 100 µM (inactive)
ACHN
  GI50: > 100 µM (inactive)
SK-MEL-5
  GI50: > 100 µM (inactive)
OVCAR-5
  GI50: > 100 µM (inactive)
SN12C
  GI50: > 100 µM (inactive)
MDA-N
  GI50: > 100 µM (inactive)
KM12
  GI50: 14.7 µM (inactive)
NCI-H522
  GI50: > 100 µM (inactive)
SF-295
  GI50: > 100 µM (inactive)
OVCAR-4
  GI50: > 100 µM (inactive)
HCT-116
  GI50: > 100 µM (inactive)
HOP-92
  GI50: > 100 µM (inactive)
SW-620
  GI50: > 100 µM (inactive)
HT-29
  GI50: > 100 µM (inactive)
MOLT-4
  GI50: 4.25 µM (inactive)
PC-3
  GI50: 3.9 µM (inactive)
DU-145
  GI50: > 100 µM (inactive)
A498
  GI50: > 100 µM (inactive)
SK-MEL-2
  GI50: > 100 µM (inactive)
SK-OV-3
  GI50: > 100 µM (inactive)
MDA-MB-435
  GI50: > 100 µM (inactive)
CAKI-1
  GI50: > 100 µM (inactive)
HL-60
  GI50: 14.1 µM (inactive)
A549
  GI50: 96.2 µM (inactive)
EKVX
  GI50: > 100 µM (inactive)
